Source: patent publication US12668607B2, “Heterocyclic amide compound, preparation method therefor and use thereof” (SHANGHAI JEYOU PHARMACEUTICAL CO., LTD., priority 2019, dated 2026)

Columns and labels:
colon cancer cells CT26 = test: Drug efficacy evaluation in CT26 syngeneic mouse model; assay type: in vivo, Balb/C mice; settings: CT26 subcutaneous tumors
Experimental: The compound efficacy evaluation was carried out by a CT26 syngeneic mouse model in this experiment. 3E5 colon cancer cells CT26 (ATCC-CRL-2638) were inoculated subcutaneously into 6-8 week-old Balb/C mice (Shanghai Lingchang Biotechnology Co., Ltd.), and the mice were randomly divided grouped, 6 mice per group when the tumor volume reached 100 mm^3. Intratumoral administration was performed on day 1 after grouping. Compound 1 was administered at a dose of 1 μg per mouse, 0.1 μg per mouse and 0.01 μg per mouse, respectively, for each group. Tumor volume measurements were taken three times a week after the start of administration. The calculation formula for tumor volume was: V=0.5a×b^2, with a and b representing the long and short diameters of the tumor, respectively. Each point is the mean and standard error of mean (SEM) of the tumor volume. Differences between control (saline) and administered groups were statistically analyzed using two-way ANOVA (statistical differences on day 15: Prism 8, ****p<0.0001).

THP1-Dual™ cells = test: THP-Dual in vitro binding assay (THP1-Dual reporter cells, Lucia luciferase/QUANTI-Luc); assay type: cell-based, human; settings: 30 min compound exposure, wash, 18 h incubation, IF-α/β activity by QUANTI-Luc
Text: The THP1-Dual™ cells used in the assay (InvivoGen, Catalog code: thpd-nfis) were constructed by stable integration of two inducible reporter genes in the human monocyte-like cell line THP1. The promoter sequence of the secretory embryo alkaline phosphatase (SEAP) reporter gene comprised an IFN-β basal promoter, 5 copies of NF-κB coexpression transcriptional response elements (NF-κB consensus transcriptional response elements) at the upstream and 3 copies of c-Rel binding sites. The secreted luciferase (Lucia) reporter gene was driven by 5 interferon-stimulated response elements (IFN-stimulated response elements) and a basal promoter of ISG54, thus making it possible to study two major downstream signaling pathways of STING simultaneously: the NF KB pathway was studied by assaying the SEAP activity; and the IRF pathway was studied by assessing the activity of Lucia luciferase.
To each well of a 96-well plate were added 20 μL of reference compounds or the compounds to be detected followed by the addition of 180 μL of THP1-Dual™ cell-containing FBS-free RPMI-1640 culture medium (about 90,000 cells/well). After incubating at 37° C. for 30 min under 5% CO2, the plate was centrifuged at 1000 rpm for 10 min, the supernatant was discarded, and the plate was washed twice with RPMI-1640 at 200 μL/well, and incubated for 18 h with RPMI-1640 at 200 µL/well. IF-α/β activity was quantified using QUANTI-Luc™ prepared and used according to the manufacturer's instructions.

human STING protein = target: T1, human STING protein (Homo sapiens, UniProt Q86WV6, H232R); test: STING in vitro binding assay (fluorescence polarization, FP affinity assay); settings: competition with 30 nM fluorescein-labeled c-di-GMP, 10 μM recombinant human wild-type STING C-terminal protein (aa 140-379), 30 min room temperature
T1 construct: from the 140th amino acid to the 379th amino acid; 6His-SUMO (N, cleaved yes); made in house
T1 sequence (Q86WV6 140-379 H232R): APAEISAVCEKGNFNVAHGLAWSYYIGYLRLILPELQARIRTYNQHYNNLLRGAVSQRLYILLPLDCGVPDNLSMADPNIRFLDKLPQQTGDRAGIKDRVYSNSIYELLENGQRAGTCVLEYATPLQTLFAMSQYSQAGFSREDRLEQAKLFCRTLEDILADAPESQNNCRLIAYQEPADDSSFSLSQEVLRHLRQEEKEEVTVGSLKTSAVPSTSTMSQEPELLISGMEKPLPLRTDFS
Experimental: Fluorescence polarization assay (FP assay) was used to detect the affinities of compounds to a human STING protein. The reaction system contained a certain amount of fluorescein labeled C-di-GMP and compounds to be detected with different concentrations, and when the C-terminal protein of the recombinant human STING was added, the two small molecules were competitively bound with the protein. The bound fluorescein-labeled c-di-GMP rotated slowly in the liquid phase, and at this point, the degree of fluorescence polarization detected was also high. The fluorescence polarization degree was in inverse relation with the concentrations and the affinities of the compounds to be detected. By detecting the magnitude of the polarized light in the reaction system, the affinities of the compounds to be detected to human STING could be accurately known.
The N-terminal of the recombinant STING protein was a 6His-SUMO sequence to facilitate correct protein folding and purification, and after protease cleavage, the C-terminal STING was used for FP assay.
In FP assay, a 384-well plate was used, with the fluorescein-labeled c-di-GMP with a final concentration of 30 nM, 10 μM human STING protein, and either reference compounds with different concentrations or the compounds to be detected added into 10 μL of the reaction system each well. The plate was centrifuged at 1000 g for 1 min, incubated at room temperature for 30 min in the dark and read with Envision.

CCn1nc(C)cc1C(=O)/N=c1/[nH]c2cc(C(N)=O)cc(OC)c2n1C/C=C/Cn1/c(=N/C(=O)c2cc(C)nn2CC)[nH]c2cc(C(N)=O)cc(OCCCO[C@H]3[C@@H](OC)O[C@H](CO)[C@@H](O)[C@@H]3O)c21 [Compound 1]
tumor growth speed compared with the control group (colon cancer cells CT26; intratumoral administration day 1, 1, 0.1 and 0.01 μg per mouse, two-way ANOVA day 15 ****p<0.0001 vs saline): significantly slowed down | inhibition of tumor growth in mice (dose relation) (colon cancer cells CT26; intratumoral, 1, 0.1 and 0.01 μg per mouse): dose-dependent | EC50 (THP1-Dual™ cells; Homo sapiens): 21 nM | IC50 (human STING protein): 400 nM

CCn1nc(C)cc1C(=O)/N=c1/[nH]c2cc(C(N)=O)cc(OC)c2n1C/C=C/Cn1/c(=N/C(=O)c2cc(C)nn2CC)[nH]c2cc(C(N)=O)cc(OCCCOC(=O)[C@@H](N)C(C)C)c21 [Compound 2]
EC50 (THP1-Dual™ cells; Homo sapiens): 8 nM | IC50 (human STING protein): 1700 nM

CCn1nc(C)cc1C(=O)/N=c1/[nH]c2cc(C(N)=O)cc(OC)c2n1C/C=C/Cn1/c(=N/C(=O)c2cc(C)nn2CC)[nH]c2cc(C(N)=O)cc(OCCCO[C@H]3[C@H](OC)O[C@H](CO)[C@H]3O)c21 [Compound 3]
EC50 (THP1-Dual™ cells; Homo sapiens): 40 nM | IC50 (human STING protein): 3700 nM

CCn1nc(C)cc1C(=O)/N=c1/[nH]c2cc(C(N)=O)cc(OCCCN3CCOCC3)c2n1C/C=C/Cn1/c(=N/C(=O)c2cc(C)nn2CC)[nH]c2cc(C(N)=O)cc(OCCCO[C@H]3[C@@H](OC)O[C@H](CO)[C@@H](O)[C@@H]3O)c21 [Compound 4]
EC50 (THP1-Dual™ cells; Homo sapiens): 520 nM | IC50 (human STING protein): 1600 nM

CCn1nc(C)c2c1C(=O)/N=C1\Nc3cc(C(N)=O)cc(OCCCO[C@H]4[C@@H](OC)O[C@H](CO)[C@@H](O)[C@@H]4O)c3N1C/C=C/CN1/C(=N\C(=O)c3cc(C)nn3CCCCC2)Nc2cc(C(N)=O)cc(OC)c21 [Compound 5]
EC50 (THP1-Dual™ cells; Homo sapiens): 60 nM | IC50 (human STING protein): 1500 nM

CCn1nc(C)cc1C(=O)/N=c1/[nH]c2cc(C(N)=O)cc(OC)c2n1C/C=C/Cn1/c(=N/C(=O)c2cc(C)nn2CC)[nH]c2cc(C(N)=O)cc(OCCN3CCCC4(CCNC4)C3)c21 (centres unmarked) [Compound 6]
EC50 (THP1-Dual™ cells; Homo sapiens): 2100 nM | IC50 (human STING protein): 2200 nM

CCn1nc(C)cc1C(=O)/N=c1/[nH]c2cc(C(N)=O)cc(OC)c2n1C/C=C/Cn1/c(=N/C(=O)c2cc(C)nn2CC)[nH]c2cc(C(N)=O)cc(OCCCN3CC4(COC4)C3)c21 [Compound 7]
EC50 (THP1-Dual™ cells; Homo sapiens): 80 nM | IC50 (human STING protein): 3800 nM

Nc1ncnc2c1ncn2[C@@H]1O[C@@H]2COP(O)(=S)O[C@@H]3C(O)[C@@H](COP(O)(=S)O[C@H]2[C@H]1O)O[C@H]3n1cnc2c(N)ncnc21 (some centres unmarked) [ML RR-S2 CDA, reference compound]
EC50 (THP1-Dual™ cells): 18200 nM
